Columns and labels:
[1] = target: testosterone 5α-reductase; assay: testosterone 5α-reductase inhibitory activity (conversion of labelled testosterone to 5α-dihydrotestosterone); type: biochemical, rats; conditions: microsome from rat prostate gland cells, 25°C, 60 minutes, pH 6.6
Protocol: The Sa-reductase inhibitory activity was determined as follows.
Prostate gland cells of rats were crushed and a specimen of testosterone 5α-reductase was then prepared by separating microsome from the crushed liquid mixture. The conversion of the testosterone to 5α-dihydrotestosterone by the use of the above-prepared enzyme specimen was monitored by radioisotopically labelled testosterone. The reaction mixture was extracted with ethyl acetate and the extract was developed twice by silica gel thin layer chromatography (solvent system, dichloromethane: cyclohexane:acetone = 15:4:1). The amount of 5α-dihydrotestosterone were determined from the intensities of the radioactivity.
A 30 µl amount of a 0.05 M phosphate buffer (pH = 6.6), 10 µl of an enzyme specimen, 8.5 pmol of labelled testosterone, 50 nmol of a reduced form of NADP (nicotinamide adenine dinucleotide phosphate), and 10 µl of a test sample were mixed (final volume = 50 µl). The mixture was included at a temperature of 25°C for 60 minutes.
The reaction was stopped by the addition of 100 ul of ethyl acetate, and the reaction mixture was extracted by vigorous shaking. The extract was developed in the same manner as mentioned above and the intensity of the radioisotope was measured by using a scintillation counter.
The above-mentioned determination was applied to the samples having various concentrations. The 5a--reductase inhibitory activity was obtained as a inhibitory rate (%) or a 50% inhibitory concentration (^IC50).

male rabbits = assay: fur growth on shorn back of rabbits; type: in vivo; parameters: Difference b, Average: unit not given here; conditions: for Grown fur length Test side a', Average: 0.2% fatty acid solution in 80% aqueous ethanol; for Difference b, Average: test side minus control side, 0.2% fatty acid solution
Protocol: Ten week old male rabbits were shorn on the back. A 0.2% fatty acid solution in 80% aqueous ethanol solution was applied, twice a day, to a half-side of the shorn portion of each rabbit for one week. As a control, a 80% aqueous ethanol solution was also applied, twice a day, to the other half-side of the shorn portion of each rabbit for one week (two week for linoleic acid). The length of the grown fur was measured.

IC50 [1]	Compound	Grown fur length Test side a', Average (male rabbits; twice a day for one week)	Difference b, Average (male rabbits; twice a day for one week)	Grown fur length Test side a', Average (male rabbits; twice a day, two week)	Difference b, Average (male rabbits; twice a day, two week)
300 µM	CCCCCCCCCCCCCCCC(=O)O [Palmitic acid, palmitic acid]	6.056^*2	0.958	–	–
1700 µM	CCCCCCCC(=O)O [n-Caprylic acid, n-caprylic acid]	5.38^*2	0.32	–	–
180 µM	CCCCCC/C=C\CCCCCCCC(=O)O [Palmitoleic acid, palmitoleic acid]	8.051^*2	0.862	–	–
–	CC/C=C\C/C=C\C/C=C\CCCCCCCC(=O)O [Linolenic acid, linolenic acid]	5.46^*2	0.45	–	–
1100 µM	CCC=CC=CC=CC=CCCCCCCCC(=O)O [Parinaric acid, parinaric acid]	6.83^*2	0.60	–	–
500 µM	CCCCCCCCCC(=O)O [n-Capric acid, n-capric acid]	7.542^*2	0.557	–	–
180 µM	CCCCC/C=C\C/C=C\CCCCCCCC(=O)O [Linoleic acid, linoleic acid]	–	–	9.98^*2	0.43

Compound	IC50 [1]	Grown fur length Test side a', Average (male rabbits; twice a day for one week)	Difference b, Average (male rabbits; twice a day for one week)	Grown fur length Test side a', Average (male rabbits; twice a day, two week)	Difference b, Average (male rabbits; twice a day, two week)
CCCCCCCCCCC/C=C\CCCCC(=O)O [Petroselinic acid, petroselinic acid]	280 µM	6.66^*2	0.50	–	–
CCCCCCCCCCCC(=O)O [Lauric acid, lauric acid]	600 µM	5.667^*2	0.776	–	–
CCCCCCCCCCCCCC(=O)O [Myristic acid, myristic acid]	1800 µM	6.583^*2	0.661	–	–
CCCCCCCC/C=C\CCCCCCCC(=O)O [Oleic Acid, oleic acid]	320 µM	6.102^*2	0.626	–	–
CCCCC/C=C\C/C=C\C/C=C\C/C=C\CCCC(=O)O [Arachidonic acid, arachidonic acid]	150 µM	7.561^*2	0.78	–	–

From patent publication EP0116439A2, “Fatty acid containing hair tonic composition” (priority 1983, dated 1984)
